For one data set, the system named is CYP3A. The data set can be described thus: CYP3A inhibition assay in mouse liver microsomes. It is filed as biochemical. The settings on record: MLMs.
Data set [1] concerns CYP3A4. Nature of the data set: Liver organ imaging in the presence of CYP3A4 inhibitor. The settings on record: male, C57BL/6J, mouse, isolated liver tissue, probe NCN (50 µM); read-out: residual activity of hepatic CYP3A4. Details: species or system mice. How it is done: dose group (CCl4-L, 0.15%), and CCl4 high dose group (CCl4-H, 0.3%). CCl4 was dissolved in vegetable oil and administered via intraperitoneal injection. After that, mice were fasted and allowed to drink water freely. After 18 h, blood samples were collected to determine the level of ALT and AST, while liver tissues were collected and washed with PBS. Then, the liver tissues were soaked 30 min in a solution containing NCN (50 μM, 5 mL) for fluorescent imaging. After organ imaging, the tissues were ground, and centrifuged, and the supernatant was diluted with 10-fold acetonitrile to precipitate the protein. After centrifugation again, the supernatant was determined to quantify the level of HNCN.
(§1) 1.15. Bio-safety assessment of NCN in healthy mice
Sixteen C57BL/6J mice (8 males and 8 females, 6 weeks) were randomly assigned into two groups (4 males and 4 females). All mice were subjected to adaptive feeding for 7 d before the experiment. […] Mice organs were weighed and the organ index was calculated, and hematoxylin and eosin (H&E) stains were provided by Shanghai Ruibaohe Biotechnology Co., Ltd. […]
After that, the liver tissues were removed, and fluorescence imaging of the liver was performed using VISQUE Invivo Smart-LF. […]
quantify the levels of HNCN. […]
fluorescence intensity of the control (solvent only)) × 100%. […]

Data set [2] deals with T1, human liver microsomes (HLMs) (Homo sapiens, UniProt P08684).
T1 construct: tissue Bioreclamation IVT lot No. X008067; host or cells: pooled human liver microsomes from 50 donors
T1 sequence (P08684 whole entry): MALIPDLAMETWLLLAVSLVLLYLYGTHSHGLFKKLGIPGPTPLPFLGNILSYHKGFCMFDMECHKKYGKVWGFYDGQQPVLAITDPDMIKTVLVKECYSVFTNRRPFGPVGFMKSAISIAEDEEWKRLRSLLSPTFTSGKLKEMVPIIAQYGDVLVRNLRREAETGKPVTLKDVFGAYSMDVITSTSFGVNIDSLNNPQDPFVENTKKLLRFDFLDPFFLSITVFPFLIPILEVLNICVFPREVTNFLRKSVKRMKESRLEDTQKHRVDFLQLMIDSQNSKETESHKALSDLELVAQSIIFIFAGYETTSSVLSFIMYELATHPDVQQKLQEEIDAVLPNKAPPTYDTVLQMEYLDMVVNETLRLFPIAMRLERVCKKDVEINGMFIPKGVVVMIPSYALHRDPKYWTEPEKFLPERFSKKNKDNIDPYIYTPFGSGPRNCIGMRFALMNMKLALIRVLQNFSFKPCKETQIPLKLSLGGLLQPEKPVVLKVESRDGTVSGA
Nature of the data set: Enzyme kinetic analysis of NCN 4-hydroxylation in HLMs. It is filed as biochemical. As to conditions: Vmax/Km, enzyme source HLMs. How it is done: (§2) 1.6. P450 reaction phenotyping and chemical inhibition assays
(§3) P450 reaction phenotyping analysis of NCN was determined using a panel of human recombinant cytochrome P450 enzymes, while the inhibitory effects of CYP specific inhibitors on NCN 4-hydroxylation in HLMs were assessed. The final concentration of each human recombinant CYP enzyme in the incubation system was 5 nM. Briefly, each sample was co-incubated with NCN at 37 °C for 30 min, the formation rate of HNCN was determined to assess the metabolic specificity of NCN.
(§4) Gaussian program conducted a GMMX conformational analysis using a DFT/B3LYP/6-31G(d) pre-optimized 3D geometry. The resulting GMMX conformers were optimized at B3LYP/6-31G(d) level. Moreover, all conformers were real minima, as no imaginary vibrational frequencies were found. The energy ranking was performed to find the minimum energy conformer. The minima conformer was optimized at B3LYP /6-311G(d,p) level. The molecular orbital energy levels and electrostatic potential (ESP) were calculated at the DFT/B3LYP/6-311G(d,p) level.
(§5) Frontier orbital and ESP were depicted by Multiwfn (Lu and Chen 2011) and VMD […]
(§6) 1.8. Enzyme kinetic analysis
(§7) The kinetic parameters of NCN 4-hydroxylation in HLMs were determined by performing a set of hydroxylation kinetic assays. Kinetic parameters (K m and Vmax) for NCN 4-hydroxylation were fitted by the following equation (a): […]

For data set [3], the system named is human recombinant cytochrome P450 enzymes. The data set can be described thus: P450 reaction phenotyping assay. It is filed as biochemical. The settings on record: NCN, panel of human P450 enzymes including CYP3A5. How it is done:
as §2, §3, §4, §5, §6, §7

The subject of another data set is NCM460 cells. Nature of the data set: Cell-membrane permeability assay in NCM460 cells. The class given is in vitro ADME.
Data set [4] deals with Hep3B cells. The data set can be described thus: Cell-membrane permeability assay in Hep3B cells. It is filed as in vitro ADME. The method, then: 1.9. Cell-membrane permeability assay
Hep3B cells were cultured with the DMEM media supplemented with 10% fetal bovine serum (FBS) in a humidified culture chamber at 37 °C with 95% air and 5%
CO2. The cells were trypsinized and resuspended with the DMEM basal medium at a […]
200 μL cell suspension was incubated with NCN (20 μM) at 37 °C for 1 h. Then, the cells were centrifuged (1000 rpm, 3 min), resuspended in DMEM media, and centrifuged again. Next, the cells were lysed with ice-cold methanol (200 μL) and centrifuged (20000 g, 30 min, 4 °C). The content of NCN in the supernatant was determined. […]

The target of a further data set is T2, human P-glycoprotein (Homo sapiens, UniProt P08183).
T2 construct: expressed in transfected cells; host or cells: MDR1-MDCK
T2 sequence (P08183 whole entry): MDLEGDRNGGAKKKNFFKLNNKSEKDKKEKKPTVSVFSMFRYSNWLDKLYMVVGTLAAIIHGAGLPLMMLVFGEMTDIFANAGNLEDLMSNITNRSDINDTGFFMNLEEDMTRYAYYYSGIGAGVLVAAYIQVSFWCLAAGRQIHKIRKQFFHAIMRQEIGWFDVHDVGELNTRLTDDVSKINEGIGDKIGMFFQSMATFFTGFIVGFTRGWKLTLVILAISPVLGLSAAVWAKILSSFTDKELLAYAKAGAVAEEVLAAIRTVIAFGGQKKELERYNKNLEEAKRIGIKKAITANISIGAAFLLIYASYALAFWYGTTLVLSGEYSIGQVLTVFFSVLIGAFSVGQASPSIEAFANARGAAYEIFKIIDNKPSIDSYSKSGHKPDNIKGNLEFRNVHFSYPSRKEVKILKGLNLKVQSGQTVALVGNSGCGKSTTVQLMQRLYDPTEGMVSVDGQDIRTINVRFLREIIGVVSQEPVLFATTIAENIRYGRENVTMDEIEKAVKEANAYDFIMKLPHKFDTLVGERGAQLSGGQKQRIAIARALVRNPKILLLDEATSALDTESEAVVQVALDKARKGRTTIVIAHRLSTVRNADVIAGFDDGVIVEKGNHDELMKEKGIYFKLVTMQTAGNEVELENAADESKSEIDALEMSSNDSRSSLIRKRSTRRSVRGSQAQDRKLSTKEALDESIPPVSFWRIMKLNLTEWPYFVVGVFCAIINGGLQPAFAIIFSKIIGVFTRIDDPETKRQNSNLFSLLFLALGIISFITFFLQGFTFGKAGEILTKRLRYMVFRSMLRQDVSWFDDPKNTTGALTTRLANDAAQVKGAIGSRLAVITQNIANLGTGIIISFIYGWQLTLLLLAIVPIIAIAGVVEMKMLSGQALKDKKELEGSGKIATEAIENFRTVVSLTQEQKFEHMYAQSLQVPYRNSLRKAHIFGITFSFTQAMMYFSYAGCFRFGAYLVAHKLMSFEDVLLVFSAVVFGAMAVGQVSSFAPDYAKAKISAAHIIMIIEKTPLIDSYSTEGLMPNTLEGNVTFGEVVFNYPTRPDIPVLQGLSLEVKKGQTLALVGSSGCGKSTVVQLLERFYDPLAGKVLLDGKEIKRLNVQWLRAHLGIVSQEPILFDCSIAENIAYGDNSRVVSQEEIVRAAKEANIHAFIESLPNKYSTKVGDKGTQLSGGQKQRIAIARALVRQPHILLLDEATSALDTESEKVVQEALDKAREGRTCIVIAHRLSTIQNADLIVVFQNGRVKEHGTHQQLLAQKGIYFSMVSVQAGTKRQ
Nature of the data set: P-gp transporter assay in MDR1-MDCK cells with or without verapamil. The class given is in vitro ADME. How it is done:
1.10. P-gp transporter assay
To test whether NCN is pumped extracellularly by P-gp, MDR1-MDCK cells (a transfected cell line overexpressing human P-glycoprotein) were seeded in 96-well plates supplemented with DMEM media with 10% FBS. Then, verapamil (a potent P-gp inhibitor, 100 μL) was added to 96-well plates and cultured for 15 min. After that, the cells were treated with NCN/Rhodamine 123 (100 μL) for 2 h. The cells were collected and washed with PBS, and lysed by 200 µL ice-cold acetonitrile. Next, the cell supernatant was collected by centrifugation at 20,000 g, 4 °C for 30 min. The content of NCN in the cells was determined. […]

Data set [5] deals with Hep3B cells. The data set can be described thus: CCK-8 cytotoxicity assay. The class given is cell-based. Background: Formazan colour is commonly taken as a measure of viable cells.
Data set [6] in a line: Bio-safety (tolerability) assessment of NCN in healthy mice. It is filed as in vivo. The method, then: as §1
Sixteen C57BL/6J mice (8 males and 8 females, 6 weeks) were randomly assigned into two groups (4 males and 4 females). All mice were subjected to adaptive feeding for 7 d before the experiment. NCN was dissolved in 0.5% CMC-Na, and mice were orally administered NCN (100 mg/kg)/0.5% CMC-Na continuously for 14 d. The mice were weighed every day, and their status was observed. After 14 d, blood and tissues from all mice were obtained for bio-safety assessment. Serum ALT, AST, TP, UREA, CREA, TG, Na+, and K+ levels were tested by using a fully automated serum biochemistry analysis (Thermo, USA). Mice organs were weighed and the organ index was calculated, and hematoxylin and eosin (H&E) stains were provided by Shanghai Ruibaohe Biotechnology Co., Ltd. […]

A short description of data set [7]: Oral bioavailability of NCN (pharmacokinetics). It is filed as in vivo, SD rats. As to conditions: Sprague-Dawley, rat, plasma, rats; for AUC(0-inf) / Cmax / Tmax / half-life: n = 5. How it is done:
precipitate the protein. After centrifugation again, the supernatant was determined to
quantify the levels of HNCN.
1.17. Oral bioavailability of NCN
intravenous injection NCN group).
h, and 24 h, respectively.
8 h, 12 h, and 24 h, respectively. […]

A short description of data set [8]: In vivo inhibitory effect of ketoconazole on NCN pharmacokinetics. The settings on record: rats; for AUC(0-inf) / Cmax / half-life: rat, plasma, po, 20 mg/kg, NCN 20 mg/kg i.g. The method, then: Twelve rats were randomly divided into two groups (CMC-Na + NCN group, […]
ketoconazole + NCN group).
50 mg/kg, respectively. Firstly, blank blood samples were collected. Then, ketoconazole or CMC-Na (control group) was administered orally. After 30 min, NCN was administered orally and blood samples were collected at the following time points […]
5-fold volume of acetonitrile.
1.21. Statistical analysis
All data are expressed as the mean ± standard deviation. The Km, Vmax, and IC50 values were determined via non-linear regression analysis using GraphPad Prism software. All statistical analyses were carried out using GraphPad Prism software (GraphPad Prism 8.0), and Origin (2025).

Data set [9] relates to human liver microsomes (HLMs).
In data set [10] the target is CYP3A4 (Homo sapiens, UniProt P08684). The data set can be described thus: Fluorescence response of NCN to CYP3A4 (NCN 4-hydroxylation). The class given is biochemical. Details: purchased Cypex.
Sequence of CYP3A4 (Homo sapiens, UniProt P08684) (P08684 whole entry): as the sequence (P08684 whole entry) above
Data set [11] relates to human liver microsomes (HLMs). The data set can be described thus: Oxidative metabolism of candidate substrates in HLMs (fluorescent product formation). The settings on record: 30 min.

What is called IC50 is the concentration that inhibits the measured activity by half. Turning to `CC(=O)N1CCN(c2ccc(OCC3COC(Cn4ccnc4)(c4ccc(Cl)cc4Cl)O3)cc2)CC1` (stereo not drawn) [KCZ, ketoconazole], in the data set with CYP3A, […] corresponded to half-maximal inhibition (IC50). The activity at 1 h, 1 µM with CYP3A4 [1] is roughly 20%.

For orientation: microsomal CLint means a measure of how fast metabolising enzymes remove a compound, apart from limits set by blood flow. A lower microsomal CLint goes with greater metabolic stability. For orientation: Tmax means the time at which the peak concentration occurs. One may read the half-life as the time in which the quantity being followed falls by half. Higher therefore signals slow loss. The bioavailability is the share of a dose that reaches the circulation, judged against a reference dose that is usually intravenous. High values mean much systemic uptake, low ones little systemic uptake. The molecule `O=C1c2cccc3cccc(c23)C(=O)N1CC1CC1` [Probe 5, N-cyclopropylmethyl-1,8-naphthalimide] had a microsomal CLint in [2] of 255 µL/min/mg. Moreover, the isozyme specificity entry in data set [3] is “only CYP3A4 could effectively trigger discernible fluorescence enhancement”. In addition, in the data set with NCM460 cells, the Cell-membrane penetration was 23.76% and the “enhancement in cell-membrane permeability compared to NEN” value stood at 23.9 fold. In addition, the “enhancement in cell-membrane permeability compared to NEN” value with Hep3B cells [4] turned out to be 13.7 fold. Besides, the Cell-membrane penetration in the data set on Hep3B cells [4] (20 μM, 1 h) was found to be 31.45%. Further, the “intracellular level in the presence of verapamil” value on human P-glycoprotein (MDR1-MDCK cells, with versus without verapamil) is recorded as “unchanged”. The P-gp substrate result at human P-glycoprotein (listed as NCN) was “No and non-substrates of P-gp”. Moreover, in the data set with Hep3B cells [5], the cytotoxicity entry was “minimal cytotoxicity”. Besides, in data set [6] (oral 100 mg kg^−1, 14 consecutive days), the “toxicity, mortality, morbidity signs” value is “no toxicity, mortality, or morbidity signs were observed”. For the same molecule, in data set [6] (oral 100 mg kg^−1, 14 days), the “histopathological examination of vital organs” value is listed as “no evidence of lesions or inflammation”; the “serum liver, kidney function and other indicators” value is reported as “within normal ranges”; the visceral organ appearance result was “normal in color, size, and shape”. In data set [7] (iv, i.v. 2 mg/kg), the AUC(0-inf) is 858 ± 120 ng·h/mL, the Cmax stood at 1860 ± 477 ng/mL, the time to peak (Tmax) was determined as 0.083 h and the half-life is 2.59 ± 0.33 h. Also, the bioavailability in [7] (po, 20 mg/kg i.g. versus 2 mg/kg i.v.) amounted to 12.9%. For the same molecule, in [7] (po, i.g. 20 mg/kg), the AUC(0-inf) was 1110 ± 208 ng·h/mL, the Cmax amounted to 275 ± 65 ng/mL, the Tmax was found to be 2 ± 0.71 h and the half-life is 1.79 ± 0.41 h. In data set [8] (control group (CMC-Na)), this molecule had an AUC(0-inf) of 1520 ng·h/mL, a Cmax of 207 ng/mL and a half-life of 1.47 h. Moreover, in data set [8] (with KCZ 50 mg kg^−1 i.g.), the AUC(0-inf) was 5840 ng·h/mL, the Cmax came out at 674 ng/mL and the half-life was 2.3 h. Also, in data set [8] (KCZ 50 mg kg^−1 versus control), the “increase of AUC0-inf by KCZ” value is 3.85 fold and the “increase of Cmax by KCZ” value is 3.26 fold. Further, in data set [9], the metabolites generated entry is given as “a single oxidative metabolite”. The Detection limit at CYP3A4 [10] (CYP3A4 concentration, NCN as substrate) is on record as 0.03 nM. Besides, the fluorescence enhancement on CYP3A4 [10] (NCN 10 μM with CYP3A4 2 nM and NADPH, 30 min, around 555 nm) came to 125 fold. Besides, in data set [11], the “fluorescence activation following oxidative metabolism” value is on record as “noticeable fluorescence activation”.

(Values after PMC12101129, “An optimized CYP3A4-activatable fluorogenic sensor for in situ functional imaging and multi-dimensional inhibitor assessment” (Chemical Science, 2025).)
